Test results from the supplement of paper PMC11061612.

Tests used:
Experiment in all cases: Bliss excess, mean over the matrix (fraction); higher = more synergy
[1] = system: CAL-51 (Breast Carcinoma)
Procedure, shortened: (§1)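 Cell lines in DMEM/F12 or RPMI with 10% FBS were plated in 1536-well plates, held 24 hours at 37°C, 5% CO2, then given two-drug dose matrices for 72 hours (DMSO typically 0.2%). Viability was read by CellTiter-Glo 2.0 luminescence and scaled as inhibition from 0 (vehicle wells) to 1 (blank wells). Combination Emax is the second-highest inhibition in the matrix; Bliss excess is observed combination effect minus expected EA + EB − EA·EB, EA and EB being single-agent effects.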

[2] = system: KARPAS-231 (B-Cell Non-Hodgkin's Lymphoma)
Procedure, shortened: as §1

COLO-829 (Melanoma) = system: COLO-829 (Melanoma)
Procedure, shortened: as §1

[3] = system: 8305C (Thyroid Gland Carcinoma)
Procedure, shortened: as §1

[4] = system: NCI-H747 (Colorectal Carcinoma)
Procedure, shortened: as §1

[5] = system: PCI-30 (Head and Neck Carcinoma)
Procedure, shortened: as §1

[6] = system: LB771-HNC (Head and Neck Carcinoma)
Procedure, shortened: as §1

[7] = system: MDA-MB-468 (Breast Carcinoma)
Procedure, shortened: as §1

[8] = system: SW626 (Colorectal Carcinoma)
Procedure, shortened: as §1

[9] = system: SK-OV-3 (Ovarian Carcinoma)
Procedure, shortened: as §1

[10] = system: KYSE-410 (Esophageal Squamous Cell Carcinoma)
Procedure, shortened: as §1

[11] = system: SW1271 (Small Cell Lung Carcinoma)
Procedure, shortened: as §1

NCI-H2795 (Mesothelioma) = system: NCI-H2795 (Mesothelioma)
Procedure, shortened: as §1

[12] = system: EN (Endometrial Carcinoma)
Procedure, shortened: as §1

SH-4 (Melanoma) = system: SH-4 (Melanoma)
Procedure, shortened: as §1

[13] = system: CTB-1 (B-Cell Non-Hodgkin's Lymphoma)
Procedure, shortened: as §1

[14] = system: RPMI-6666 (Non-Cancerous)
Procedure, shortened: as §1

[15] = system: NCI-H69 (Small Cell Lung Carcinoma)
Procedure, shortened: as §1

[16] = system: CAL-54 (Kidney Carcinoma)
Procedure, shortened: as §1

[17] = system: CAPAN-1 (Pancreatic Carcinoma)
Procedure, shortened: as §1

SMILES	Bliss excess [1]	Bliss excess [2]	Bliss excess (COLO-829 (Melanoma))	Bliss excess [3]	Bliss excess [4]	Bliss excess [5]	Bliss excess [6]	Bliss excess [7]	Bliss excess [8]	Bliss excess [9]	Bliss excess [10]	Bliss excess [11]	Bliss excess (NCI-H2795 (Mesothelioma))	Bliss excess [12]	Bliss excess (SH-4 (Melanoma))	Bliss excess [13]	Bliss excess [14]	Bliss excess [15]	Bliss excess [16]	Bliss excess [17]
CCc1c2c(nc3ccc(O)cc13)-c1cc3c(c(=O)n1C2)COC(=O)[C@]3(O)CC [SN-38] + CN(C)CCCOc1ccc(-c2ccc3ncc4c(c3c2)n(C2CCOCC2)c(=O)n4C)cn1 [AZD0156] (first compound max 0.3 µM, 7x7, partner max 1 µM)	0.0611	0.0202	-0.0257	0.0088	0.0019	-0.0044	-0.031	0.0309	-0.0379	-0.0132	-0.0542	0.0025	0.0334	-0.0346	-0.0552	-0.0393	-0.0196	-0.0197	0.005	-0.0341
Cc1c2c(nn1C)CSCc1cc(n(C)n1)CSc1cc(c3ccccc3c1)OCCCc1c(C(=O)O)n(C)c3c-2c(Cl)ccc13 [AZD5991] + CN(C)CCCOc1ccc(-c2ccc3ncc4c(c3c2)n(C2CCOCC2)c(=O)n4C)cn1 [AZD0156] (first compound max 1 µM, 7x7, partner max 1 µM)	0.0198	0.041	-0.0492	-0.0178	-0.0289	0.0079	0.0096	-0.0544	0.0094	0.0106	-0.028	0.0034	0.0192	-0.024	0.0088	-0.0457	-0.0605	-0.0614	-0.0036	-0.0229
C[C@@H]1COCCN1c1cc(C2([S@](C)(=N)=O)CC2)nc(-c2ccnc3[nH]ccc23)n1 [AZD6738] + O=C(c1cc(Cc2n[nH]c(=O)c3ccccc23)ccc1F)N1CCN(C(=O)C2CC2)CC1 [Olaparib] (first compound max 10 µM, 7x7, partner max 10 µM)	0.0407	-0.0708	-0.0067	-0.0594	0.0096	-0.052	0.0337	-0.0227	-0.0022	-0.0222	-0.0219	-0.016	0.053	-0.0479	0.0189	-0.0454	-0.0839	-0.0283	0.045	-0.0125
CC1(C)CCC(CN2CCN(c3ccc(C(=O)NS(=O)(=O)c4ccc(NCC5CCOCC5)c([N+](=O)[O-])c4)c(Oc4cnc5[nH]ccc5c4)c3)CC2)=C(c2ccc(Cl)cc2)C1 [Venetoclax] + C[C@@H](Nc1cc(F)cc(F)c1)c1cc(C(=O)N(C)C)cc2c(=O)cc(N3CCOCC3)oc12 [AZD8186] (first compound max 1 µM, 7x7, partner max 3 µM)	-0.0394	-0.184	-0.0019	-0.0423	0.0197	-0.0292	0.0083	-0.0688	-0.0258	-0.0984	-0.0397	-0.055	-0.0218	-0.0384	-0.0214	-0.0261	0.0617	0.0128	0.0021	-0.0594
COc1cccc2c1C(=O)c1c(O)c3c(c(O)c1C2=O)C[C@@](O)(C(=O)CO)C[C@@H]3O[C@H]1C[C@H](N)[C@H](O)[C@H](C)O1 [Doxorubicin] + Cc1cc2ncnn2cc1Nc1ncc2c(n1)n(C1CCOCC1)c(=O)n2C [AZD7648] (first compound max 1 µM, 7x7, partner max 10 µM)	0.121	0.0522	0.0212	-0.0023	0.0388	0.006	-0.035	0.0309	0.0033	-0.0049	-0.0448	0.0452	0.0227	0.0108	0.024	0.077	0.103	0.0064	0.0594	0.0038
COc1cccc(OCCCN)c1-c1cc(Nc2cnc(C#N)cn2)n[nH]1 [Prexasertib] + CN(C)CCCOc1ccc(-c2ccc3ncc4c(c3c2)n(C2CCOCC2)c(=O)n4C)cn1 [AZD0156] (first compound max 1 µM, 7x7, partner max 1 µM)	0.0233	0.0423	0.0127	-0.0926	-0.0095	-0.0637	0.0582	-0.057	-0.0035	-0.066	-0.03	-0.0183	0.05	-0.0459	0.0424	0.0109	0.0064	-0.081	0.0611	-0.0747
Cc1c2c(nn1C)CSCc1cc(n(C)n1)CSc1cc(c3ccccc3c1)OCCCc1c(C(=O)O)n(C)c3c-2c(Cl)ccc13 [AZD5991] + C=CCn1c(=O)c2cnc(Nc3ccc(N4CCN(C)CC4)cc3)nc2n1-c1cccc(C(C)(C)O)n1 [AZD1775] (first compound max 1 µM, partner max 1 µM)	0.045	0.0195	-0.0169	-0.0065	-0.0103	0.0371	0.0271	-0.0956	0.0446	0.0698	0.0218	-0.0385	0.0734	-0.0038	0.101	-0.0417	0.0122	-0.116	-0.0522	-0.0981
COc1cccc(OCCCN)c1-c1cc(Nc2cnc(C#N)cn2)n[nH]1 [Prexasertib] + Cc1cc2ncnn2cc1Nc1ncc2c(n1)n(C1CCOCC1)c(=O)n2C [AZD7648] (first compound max 1 µM, 7x7, partner max 10 µM)	0.0069	0.0123	0.0467	-0.0726	0.0085	-0.0227	-0.0088	0.0262	0.0236	-0.0686	-0.0267	-0.0014	-0.0556	-0.0753	-0.0545	-0.0352	-0.0261	0.0337	-0.0483	-0.0274
CN(CCO)CC[C@H](CSc1ccccc1)Nc1ccc(S(=O)(=O)NC(=O)c2ccc(N3CCC([C@@H](O)c4ccccc4-c4ccc(Cl)cc4)CC3)cc2)cc1S(=O)(=O)C(F)(F)F [AZD4320] + Cn1cnc2c(F)c(Nc3ccc(Br)cc3Cl)c(C(=O)NOCCO)cc21 [Selumetinib] (first compound max 1 µM, 7x7, partner max 3 µM)	0.0502	-0.006	-0.0351	0.097	-0.0306	0.0023	0.0178	-0.0301	0.0271	-0.0362	0.0417	0.0306	-0.02	-0.0088	0.107	-0.0849	-0.0047	-0.0245	0.0336	0.0665
CCN(CCO)CCCOc1ccc2c(Nc3cc(CC(=O)Nc4cccc(F)c4)[nH]n3)ncnc2c1 [AZD2811] + O=C(c1cc(Cc2n[nH]c(=O)c3ccccc23)ccc1F)N1CCN(C(=O)C2CC2)CC1 [Olaparib] (first compound max 1 µM, 7x7, partner max 10 µM)	0.0272	0.0091	0.0233	-0.0398	0.03	-0.031	0.0255	0.0541	-0.0134	-0.041	-0.0308	-0.0312	0.052	-0.0657	-0.0234	-0.0508	-0.0615	-0.0259	-0.0073	-0.0091
C=CCn1c(=O)c2cnc(Nc3ccc(N4CCN(C)CC4)cc3)nc2n1-c1cccc(C(C)(C)O)n1 [AZD1775] + O=C(c1cc(Cc2n[nH]c(=O)c3ccccc23)ccc1F)N1CCN(C(=O)C2CC2)CC1 [Olaparib] (first compound max 1 µM, partner max 10 µM)	-0.0122	-0.0554	-0.0137	-0.0762	0.0175	-0.0579	-0.0622	-0.0449	-0.0526	-0.0465	-0.04	-0.0488	-0.0182	-0.0469	-0.0882	-0.0921	-0.0373	-0.0166	-0.0341	-0.0123
CN(CCO)CC[C@H](CSc1ccccc1)Nc1ccc(S(=O)(=O)NC(=O)c2ccc(N3CCC([C@@H](O)c4ccccc4-c4ccc(Cl)cc4)CC3)cc2)cc1S(=O)(=O)C(F)(F)F [AZD4320] + C1CN(CCC1(C(=O)N[C@@H](CCO)C2=CC=C(C=C2)Cl)N)C3=NC=NC4=C3C=CN4 [Capivasertib] (first compound max 1 µM, 7x7, partner max 3 µM)	-0.0089	0.0407	-0.0988	-0.0663	-0.0682	-0.0402	-0.0148	-0.0528	-0.0682	-0.0663	-0.0686	-0.0606	-0.0572	-0.0343	-0.0462	-0.0277	0.0083	-0.0153	-0.0694	-0.0405
CC1(C)CCC(CN2CCN(c3ccc(C(=O)NS(=O)(=O)c4ccc(NCC5CCOCC5)c([N+](=O)[O-])c4)c(Oc4cnc5[nH]ccc5c4)c3)CC2)=C(c2ccc(Cl)cc2)C1 [Venetoclax] + Cc1cc2ncnn2cc1Nc1ncc2c(n1)n(C1CCOCC1)c(=O)n2C [AZD7648] (first compound max 1 µM, 7x7, partner max 10 µM)	-0.0323	-0.124	-0.0367	-0.0293	-0.0124	-0.0545	-0.006	-0.0299	-0.0098	-0.134	-0.0471	-0.115	-0.0113	-0.0233	-0.0039	-0.0638	-0.0477	-0.0227	-0.0295	-0.0196
COc1cccc(OCCCN)c1-c1cc(Nc2cnc(C#N)cn2)n[nH]1 [Prexasertib] + C=CCn1c(=O)c2cnc(Nc3ccc(N4CCN(C)CC4)cc3)nc2n1-c1cccc(C(C)(C)O)n1 [AZD1775] (first compound max 1 µM, partner max 1 µM)	0.101	0.0482	-0.0067	0.0491	0.0623	0.0954	0.0424	0.0399	0.0304	0.0324	0.0066	0.0019	0.0221	0.0115	0.0591	0.0374	0.0119	0.151	-0.024	-0.0069
